This passage reports Ki results from ChEMBL document CHEMBL1123931, “N10-substituted 5,8-dideazafolate inhibitors of glycinamide ribonucleotide transformylase” (J Med Chem, 1987).

The target of the first experiment is T1, Trifunctional purine biosynthetic protein adenosine-3 (Mus musculus, UniProt Q64737).
T1 sequence (Q64737 whole entry): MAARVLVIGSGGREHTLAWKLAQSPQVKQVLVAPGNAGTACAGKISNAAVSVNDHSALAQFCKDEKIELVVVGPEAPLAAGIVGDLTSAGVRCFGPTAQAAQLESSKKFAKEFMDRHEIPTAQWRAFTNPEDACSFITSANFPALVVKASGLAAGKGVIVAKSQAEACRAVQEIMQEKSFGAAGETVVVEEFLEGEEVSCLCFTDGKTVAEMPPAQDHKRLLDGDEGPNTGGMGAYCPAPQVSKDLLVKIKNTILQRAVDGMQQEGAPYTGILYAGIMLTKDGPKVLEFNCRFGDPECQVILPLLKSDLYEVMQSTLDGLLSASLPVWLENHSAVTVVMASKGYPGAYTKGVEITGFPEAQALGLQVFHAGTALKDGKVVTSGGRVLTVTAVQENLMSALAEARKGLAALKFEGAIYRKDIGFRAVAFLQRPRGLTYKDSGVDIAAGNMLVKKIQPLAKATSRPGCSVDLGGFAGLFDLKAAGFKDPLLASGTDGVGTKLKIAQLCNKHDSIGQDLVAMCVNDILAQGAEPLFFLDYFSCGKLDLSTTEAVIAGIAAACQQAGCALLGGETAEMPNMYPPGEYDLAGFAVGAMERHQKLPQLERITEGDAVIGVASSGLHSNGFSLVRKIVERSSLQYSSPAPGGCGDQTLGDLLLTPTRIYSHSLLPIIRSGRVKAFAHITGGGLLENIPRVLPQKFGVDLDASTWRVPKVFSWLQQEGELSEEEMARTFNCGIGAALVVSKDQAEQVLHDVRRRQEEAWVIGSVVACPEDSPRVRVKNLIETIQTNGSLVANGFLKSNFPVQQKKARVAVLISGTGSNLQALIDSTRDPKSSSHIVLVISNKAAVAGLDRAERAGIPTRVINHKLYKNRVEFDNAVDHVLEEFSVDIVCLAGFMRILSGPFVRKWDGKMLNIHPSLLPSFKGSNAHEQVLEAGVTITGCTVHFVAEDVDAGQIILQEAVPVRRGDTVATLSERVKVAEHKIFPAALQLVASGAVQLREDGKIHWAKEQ
The experiment in a line: Inhibition of GAR transformylase isolated from the murine lymphoma cell line L5178Y. In kind it is cell-free.
As to `CCN(Cc1ccc2nc(N)nc(O)c2c1)c1ccc(C(=O)NC(CCC(=O)O)C(=O)O)cc1` (configuration not stated), the inhibitory constant (Ki) (commonly a dissociation constant, usually derived from enzyme kinetics or from competition with a known ligand) is 16 µM.

For the next experiment, the target named is T1, Trifunctional purine biosynthetic protein adenosine-3. The experiment can be described thus: Inhibition of GAR transformylase isolated from murine lymphoma cell line L5178Y. It counts as cell-free.
Take `CC(=O)N(Cc1ccc2nc(N)[nH]c(=O)c2c1)c1ccc(C(=O)NC(CCC(=O)O)C(=O)O)cc1` (configuration not stated): the inhibition constant (Ki) came to 1.3 µM.
For `Nc1nc2ccc(CN(CC(=O)O)c3ccc(C(=O)NC(CCC(=O)O)C(=O)O)cc3)cc2c(=O)[nH]1` (configuration not stated), the Ki worked out at 5 µM.
On the same count and under the same terms, the same measure for `Nc1nc2ccc(CN(Cc3cccc(F)c3)c3ccc(C(=O)NC(CCC(=O)O)C(=O)O)cc3)cc2c(=O)[nH]1` (configuration not stated): 18 µM.
The same measure, in the same setting: with `Nc1nc(O)c2cc(CN(CC(=O)c3ccccc3)c3ccc(C(=O)NC(CCC(=O)O)C(=O)O)cc3)ccc2n1` (configuration not stated) the figure was 3 µM; with `Nc1nc2ccc(CN(Cc3c[nH]c(=O)[nH]c3=O)c3ccc(C(=O)NC(CCC(=O)O)C(=O)O)cc3)cc2c(=O)[nH]1` (configuration not stated), 7 µM.
Still for that read-out and setting: with `N#CCCCN(Cc1ccc2nc(N)nc(O)c2c1)c1ccc(C(=O)NC(CCC(=O)O)C(=O)O)cc1` (configuration not stated) the figure was 11 µM; with `Nc1nc2ccc(CN(CC3CC3)c3ccc(C(=O)NC(CCC(=O)O)C(=O)O)cc3)cc2c(=O)[nH]1` (configuration not stated), 8 µM.
The compound `CC(C)N(Cc1ccc2nc(N)nc(O)c2c1)c1ccc(C(=O)NC(CCC(=O)O)C(=O)O)cc1` (configuration not stated) returned a Ki of 19 µM.
`Nc1nc2ccc(CN(CCC(=O)O)c3ccc(C(=O)NC(CCC(=O)O)C(=O)O)cc3)cc2c(=O)[nH]1` (configuration not stated) yielded a Ki of 32 µM.
On the same count and under the same terms, with `C#CCN(Cc1ccc2[nH]c(N)nc(=O)c2c1)c1ccc(C(=O)NC(CCC(=O)O)C(=O)O)cc1` (configuration not stated) the figure was 6 µM; with `Nc1nc(O)c2cc(CNc3ccc(C(=O)NC(CCC(=O)O)C(=O)O)cc3)ccc2n1` (configuration not stated) [DIDEAZAFOLATE], 2 µM.
